Reference: patent US12187782B2, “PDL1 peptides for use in cancer vaccines” (IO BIOTECH APS, priority 2016, dated 2025)
No end group written: not given here.

Key:
[1] = system: CD8 T-cells specific for the minimal epitope PDL111; assay: ELISPOT with PDL111-specific CD8 T cells; type: cell-based, human
Description: (§1) The ELISPOT technique enabled screening a high number of peptide antigens for T-cell recognition, despite the availability of relatively few T-cells. We used the ELISPOT assay to quantify peptide-specific, effector cells that secreted IFN-γ, as described in Example 1. We performed the assays according to the guidelines provided by the cancer immunotherapy immunoguiding program (CIP; cimt.eu/cimt/files/dl/cip_guidelines.pdf). To measure T-cell reactivity, nitrocellulose-bottomed 96-well plates (MultiScreen MSIPN4W; Millipore) were coated overnight with the relevant antibodies. The wells were washed and blocked with X-vivo medium for 2 h. The Tumor Infiltrating Lymphoctyes (TILs) were added at different cell concentrations in triplicate wells, with PD-L1 peptides or with control peptide, and incubated overnight. The following day, the wells were washed, and the relevant biotinylated secondary antibody (Mabtech) was added, followed by the avidin-enzyme conjugate (AP-Avidin; Calbiochem/Invitrogen Life Technologies); finally, we added the enzyme substrate, NBT/BCIP (Invitrogen Life Technologies) for visualization. The spots on the developed ELISPOT plates were analyzed on a CTL ImmunoSpot S6 Ultimate-V analyzer with Immunospot software, v5.1.
[…] We analysed the reactivity towards PDL111, PDL1242-264 ([…]— PDLong2, SEQ ID NO: 91), 10104.1 (—OH) and 10104.1 (NH). […]

[2] = system: cells from spleen and draining lymph nodes; assay: IFNγ-Elispot of spleen and dLN cells from DNFB-treated mice, stimulated ex vivo with peptide (Example 4); type: cell-based, C56BL/6 mice; settings: not with control, 5 μg/ml peptide ex vivo
Description: A solution of 0.15% 2,4-dinitrofluorobenzene (DNFB; an allergen) in 1:4 olive oil/ace-tone (OOA) (or just OOA as a control) was painted on back of both ears of C56BL/6 mice for 3 consecutive days (days 0-2). On day 5 the mice were sacrificed and a single cell solution of the removed spleen and draining lymph nodes (dLNs) was made for further analysis by IFNγ-Elispot.
8-9×10^5 cells/well were stimulated ex vivo in Elispot plates with 5 μg/ml mPD-L1long1 (mLong1 from Example 3) or mPD-L1short (a part of the mLong1 peptide having the sequence […] (SEQ ID NO: 101)) for 18-20 hours. Spot count for the peptide stimulated wells was subtracted the background (spot count of wells with no peptide stimulation).
(§2) • Following sacrifice of mice, spleen (and draining lymph nodes (dLNs)) were removed. • Spleen and dLNs was smashed through a […] cell strainer into a 50 ml tube with media (RPMI+10% FCS+1% pen/strep) and washed for at 300 G for 5 minutes, repeated for dLNs. Splenocytes was lysed with RBC lysis buffer for 1 min and washed in media twice. • Cells were counted and transferred to IFNγ Ab-coated Elispot plates in cell number of 9×10^5 cells/well. Coating antibody: Anti-mouse IFN-g mAb AN18 (Mabtech cat no. 3321-3-1000). • Stimulatory peptides were added to designated wells in concentrations of 5 μg/ml. Control wells were not stimulated with peptide. • Elispot plates were developed after 18-20 hours. • Detection antibody Anti-mouse IFN-g mAb R4-6A2-Biotin (Mabtech cat no. 3321-6-1000). Avidin-enzyme conjugate (AP-Avidin; Calbiochem/Invitrogen Life Technologies) and enzyme substrate, NBT/BCIP (Invitrogen Life Technologies) used for visualization. • Spot count for peptide-stimulated wells was always subtracted the corresponding wells without peptide stimulation (the background) • Negative values were sat to zero.

PD-L1-specific T cells = assay: Vaccination of mice with mPD-L1long1, IFNγ-Elispot (Example 5); type: in vivo, C56BL/6 mice
Description: C56BL/6 mice were vaccinated subcutaneously (s.c) on the lower back with 100 μg mPD-L1long1 (mLong1 from Example 3) with or without Montanide as an adjuvant (only Montanide as a control) at day 0. On day 7 the mice were sacrificed and a single cell solution of the removed spleen was made for further analysis by IFNγ-Elispot.
9×10^5 splenocytes/well were stimulated ex vivo in Elispot plates with 5 μg/ml mPD-L1long1 or mPD-L1short for 18-20 hours. Spot count for the peptide stimulated wells was subtracted the background (spot count of wells with no peptide stimulation).
as §2

splenocytes = assay: IFNγ-Elispot of splenocytes from IFNγ-injected mice, stimulated ex vivo with mPDL1 peptides (Example 3); type: cell-based, C56BL/6 mice; settings: splenocytes after prior IFNγ injection; 5 μg/ml peptide ex vivo, 18-20 hours
Description: C56BL/6 mice were injected with 1 μg IFNγ in 200 μl PBS i.p (or no injection for control) two days apart (day 0+2) to simulate inflammation. On day 5 the mice were sacrificed and a single cell solution of the removed spleen was made for further analysis by IFNγ-Elispot.
9×10^5 splenocytes/well were stimulated ex vivo in Elispot plates with 5 μg/ml peptides from murine (m)PDL1 for 18-20 hours. Spot count for the peptide stimulated wells was subtracted the background (spot count of wells with no peptide stimulation).
as §2, with “Avidin-enzyme conjugate (AP-Avidin; Calbiochem/Invitrogen Life Technologies) and enzyme substrate, NBT/BCIP (Invitrogen Life Technologies) used for visualization. • Spot count for peptide-stimulated wells was always subtracted the corresponding wells without peptide stimulation (the background) • Negative values were sat to zero.” left out

[3] = system: PBMCs from malignant melanoma patients; assay: Co-stimulation assay: PBMCs stimulated with DCvacc plus peptide, read by intracellular TNFα/IFNγ staining; type: cell-based, human; settings: for CD4+ T cell reactivity toward DCvacc increased by co-stimulation (donors) / CD8+ T cell reactivity toward DCvacc increased by co-stimulation (donors): eight donors, vs control peptide
Description: PBMCs from malignant melanoma patients were stimulated with autologous DCvacc with ratio 1:10 DCvacc:PBMCs. […] Second stimulation with DCvacc was performed on day 7 and followed by peptide co-stimulation on day […] (120 U/mL) was added a day after each peptide co-stimulations. A week after second peptide co-stimulation the cultures were analyzed for DCvacc response using intracellular cytokine staining.
For detection of cell subpopulations producing cytokines (IFN-γ and TNF-α), PBMCs that were stimulated with DCvacc and co-stimulated with peptides for two weeks, were stimulated with DCvacc (ratio 1:10 DCvacc:PBMCs) for 5 hours at 37° C. with 5% CO2. GolgiPlug (BD) was added at a dilution of 1:200 after the first hour of incubation. After 4 additional hours cells were washed twice with PBS, stained fluorochrome conjugated antibodies for surface markers (CD3-Amcyan, CD4-PerCP and CD8-Pacific Blue, all from BD). Cells were washed one additional time and thereafter were fixed and permeabilized with Fixation/Permeabilization and Permeabilization Buffer (eBioscience), according to manufacturer's instructions. Cells were subsequently stained with fluorochrome-conjugated antibodies for intracellular cytokines. The following combinations were used: IFN-γ-PE-CY7 (BD), TNF-α-APC (eBioscience). […] Stained cells were analyzed using a BD FACSCanto II flow cytometer and further analysis was performed with BD FacsDiva Software.

[4] = system: tumor-infiltrating lymphocytes from 7 melanoma patients; assay: IFNγ ELISPOT on tumor-infiltrating lymphocytes (Example 2); type: cell-based, human
Description: as §1

[5] = peptide-vaccinated mice (100 μg s.c.) compared to adjuvant alone, day 7
[6] = PBMCs before vaccination (baseline)

In the case of “Arg-Thr-His-Leu-Val-Ile-Leu-Gly-Ala-Ile-Leu-Leu-Cys-Leu-Gly-Val-Ala-Leu-Thr-Phe-Ile-Phe-Arg-Leu-Arg-Lys-Gly-Arg-NH2 (RTHLVILGAILLCLGVALTFIFRLRKGR-NH2) [IO104.1-NH2]”, the “reactivity of PDL111-specific CD8 T cells, ELISPOT” value [1] is reported as “able to react”.
With “GIIFTACCHL (listed as Mus musculus) [mPD-L1short]” the “recognition by dLNs, IFNγ-Elispot” value [2] was “recognized” and the “recognition by splenocytes, IFNγ-Elispot” value [2] was “recognized”.
In the case of “Arg-Thr-His-Leu-Val-Ile-Leu-Gly-Ala-Ile-Leu-Leu-Cys-Leu-Gly-Val-Ala-Leu-Thr-Phe-Ile-Phe-Arg-Leu-Arg-Lys-Gly-Arg-OH (RTHLVILGAILLCLGVALTFIFRLRKGR-OH) [IO104.1-OH]”, the “reactivity of PDL111-specific CD8 T cells, ELISPOT” value [1] is reported as “able to react”.
With “MRIFAGIIFTACCHLLRA (listed as Mus musculus) [mLong1]” the “PD-L1-specific T cell response in the draining lymph nodes (DLNs)” value (PD-L1-specific T cells; [5]) was “strong”, the “PD-L1-specific T cell response in the spleens” value (PD-L1-specific T cells; [5]) was “strong” and the “PD-L1-specific response by IFNγ Elispot, ex vivo stimulation with mPD-L1long” value (PD-L1-specific T cells; vaccinated mice) was “increased”. The “PD-L1-specific response by IFNγ Elispot, ex vivo stimulation with mPD-L1 short” value (PD-L1-specific T cells; vaccinated mice) was “increased”, the “recognition by dLNs, IFNγ-Elispot” value [2] was “recognized” and the “recognition by splenocytes, IFNγ-Elispot” value [2] was “recognized”. For the same substance, the “recognition by T cells, IFNγ-Elispot” value (splenocytes) was “most positive results”.
In the case of “FMTYWHLLNAFTVTVPKDL (listed as Homo sapiens) [PDLong1]”, the “CD4+ T cell reactivity toward DCvacc increased by co-stimulation (donors)” value ([3]; PBMCs after four vaccinations) is reported as “all donors”, the “CD8+ T cell reactivity toward DCvacc increased by co-stimulation (donors)” value ([3]; PBMCs after four vaccinations) is reported as “five out of eight donors” and the “CD4+ T cell reactivity toward DCvacc increased by co-stimulation (donors)” value [3, 6] is reported as “six out of eight donors”. For the same substance, the “CD8+ T cell reactivity toward DCvacc increased by co-stimulation (donors)” value [3, 6] was “seven out of eight donors”, the “CD4+ T cells reacting against DCvacc compared to control peptide” value ([3]; all cultures, P=0.02) was “significantly greater extent” and the “CD8+ T cells reacting against DCvacc compared to control peptide” value ([3]; all cultures, P=0.05) was “significantly greater extent”. For the same substance, the “number of PBMCs that showed reactivity against DCvacc” value ([3]; cocultured with peptide compared to the control HIV epitope) was “increase”.
In the case of “RTHLVILGAILLCLGVALTFIFRLRKGR (not fully specified; listed as Homo sapiens) [IO104.1, positions 238 to 265 of hPD-L1; C terminal acid or amide form]”, the “T cell response, IFNγ ELISPOT (patients responding)” value [4] is reported as “three of the patients”.
For “WVLLGSILLFLIVVSTVLLFLRKQV (listed as Mus musculus) [mLong3]”, the “recognition by T cells, IFNγ-Elispot” value (splenocytes) was “most positive results”.
